Test results taken from PubChem BioAssay (NCI).
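At the GI50, growth is halved. TGI marks complete inhibition of growth.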

Legend:
Assay in all cases: NCI-60 cell line screen, 384-well format
HL-60(TB) leukemia = tested on: HL-60(TB) leukemia
OVCAR-5 ovarian = tested on: OVCAR-5 ovarian
COLO 205 colon = tested on: COLO 205 colon
OVCAR-4 ovarian = tested on: OVCAR-4 ovarian
MALME-3M melanoma = tested on: MALME-3M melanoma
MDA-MB-468 breast = tested on: MDA-MB-468 breast
NCI-H522 lung = tested on: NCI-H522 lung
LOX IMVI melanoma = tested on: LOX IMVI melanoma
NCI-H322M lung = tested on: NCI-H322M lung
BT-549 breast = tested on: BT-549 breast
MDA-MB-231 breast = tested on: MDA-MB-231 breast
UO-31 renal = tested on: UO-31 renal
A498 renal = tested on: A498 renal
SR leukemia = tested on: SR leukemia
SK-MEL-5 melanoma = tested on: SK-MEL-5 melanoma
M14 melanoma = tested on: M14 melanoma
SW-620 colon = tested on: SW-620 colon
SK-MEL-2 melanoma = tested on: SK-MEL-2 melanoma
HOP-62 NSCLC = tested on: HOP-62 NSCLC
KM12 colon = tested on: KM12 colon
NCI-H23 lung = tested on: NCI-H23 lung
SF-268 CNS = tested on: SF-268 CNS
HS 578T breast = tested on: HS 578T breast
TK-10 renal = tested on: TK-10 renal
ACHN renal = tested on: ACHN renal
T-47D breast = tested on: T-47D breast
HCC-2998 colon = tested on: HCC-2998 colon
MDA-MB-435 melanoma = tested on: MDA-MB-435 melanoma
MOLT-4 leukemia = tested on: MOLT-4 leukemia
SK-MEL-28 melanoma = tested on: SK-MEL-28 melanoma
MCF7 breast = tested on: MCF7 breast
NCI/ADR-RES ovarian = tested on: NCI/ADR-RES ovarian
HCT-15 colon = tested on: HCT-15 colon
UACC-257 melanoma = tested on: UACC-257 melanoma
RXF 393 renal = tested on: RXF 393 renal
PC-3 prostate = tested on: PC-3 prostate
SNB-19 CNS = tested on: SNB-19 CNS
DU-145 prostate = tested on: DU-145 prostate
HT29 colon = tested on: HT29 colon
UACC-62 melanoma = tested on: UACC-62 melanoma
SNB-75 CNS = tested on: SNB-75 CNS
SF-295 CNS = tested on: SF-295 CNS
A549 NSCLC = tested on: A549 NSCLC
NCI-H226 lung = tested on: NCI-H226 lung
HCT-116 colon = tested on: HCT-116 colon
CCRF-CEM leukemia = tested on: CCRF-CEM leukemia
786-0 renal = tested on: 786-0 renal

Structure (SMILES): CNCc1ccc(-c2[nH]c3cc(F)cc4c3c2CCNC4=O)cc1
- GI50 (HL-60(TB) leukemia): 8.28 µM
- TGI (HL-60(TB) leukemia): 19.1 µM
- GI50 (OVCAR-5 ovarian): 15.8 µM
- TGI (OVCAR-5 ovarian): 38.9 µM
- GI50 (COLO 205 colon): 9.97 µM
- TGI (COLO 205 colon): 23.1 µM
- GI50 (OVCAR-4 ovarian): 21 µM
- TGI (OVCAR-4 ovarian): 38.2 µM
- GI50 (MALME-3M melanoma): 16.9 µM
- TGI (MALME-3M melanoma): 30.7 µM
- GI50 (MDA-MB-468 breast): 4.13 µM
- TGI (MDA-MB-468 breast): 11.5 µM
- GI50 (NCI-H522 lung): 15.6 µM
- TGI (NCI-H522 lung): 29.3 µM
- GI50 (LOX IMVI melanoma): 13 µM
- TGI (LOX IMVI melanoma): 26 µM
- GI50 (NCI-H322M lung): 17.2 µM
- TGI (NCI-H322M lung): 32.4 µM
- GI50 (BT-549 breast): 11.8 µM
- TGI (BT-549 breast): 24.2 µM
- GI50 (MDA-MB-231 breast): 8.58 µM
- TGI (MDA-MB-231 breast): 21.8 µM
- GI50 (UO-31 renal): 12.1 µM
- TGI (UO-31 renal): 28.5 µM
- GI50 (A498 renal): 15.7 µM
- TGI (A498 renal): 29.3 µM
- GI50 (SR leukemia): 1.54 µM
- TGI (SR leukemia): 3.93 µM
- GI50 (SK-MEL-5 melanoma): 6.05 µM
- TGI (SK-MEL-5 melanoma): 12.1 µM
- GI50 (M14 melanoma): 14.7 µM
- TGI (M14 melanoma): 28 µM
- GI50 (SW-620 colon): 7.46 µM
- TGI (SW-620 colon): 23.6 µM
- GI50 (SK-MEL-2 melanoma): 11.9 µM
- TGI (SK-MEL-2 melanoma): 24.3 µM
- GI50 (HOP-62 NSCLC): 9.39 µM
- TGI (HOP-62 NSCLC): 23.4 µM
- GI50 (KM12 colon): 15.7 µM
- TGI (KM12 colon): 30.2 µM
- GI50 (NCI-H23 lung): 12.1 µM
- TGI (NCI-H23 lung): 24.8 µM
- GI50 (SF-268 CNS): 14.1 µM
- TGI (SF-268 CNS): 29.1 µM
- GI50 (HS 578T breast): 10.4 µM
- TGI (HS 578T breast): 22.4 µM
- GI50 (TK-10 renal): 18.8 µM
- TGI (TK-10 renal): 46.5 µM
- GI50 (ACHN renal): 11.5 µM
- TGI (ACHN renal): 28.6 µM
- GI50 (T-47D breast): 16.9 µM
- TGI (T-47D breast): 36.9 µM
- GI50 (HCC-2998 colon): 11.3 µM
- TGI (HCC-2998 colon): 23.8 µM
- GI50 (MDA-MB-435 melanoma): 19 µM
- TGI (MDA-MB-435 melanoma): 34.2 µM
- GI50 (MOLT-4 leukemia): 2.17 µM
- TGI (MOLT-4 leukemia): 5.64 µM
- GI50 (SK-MEL-28 melanoma): 15.2 µM
- TGI (SK-MEL-28 melanoma): 28.8 µM
- GI50 (MCF7 breast): 6.36 µM
- TGI (MCF7 breast): 18.7 µM
- GI50 (NCI/ADR-RES ovarian): 38.7 µM
- TGI (NCI/ADR-RES ovarian): > 92.6 µM
- GI50 (HCT-15 colon): 15.1 µM
- TGI (HCT-15 colon): 31.1 µM
- GI50 (UACC-257 melanoma): 12.8 µM
- TGI (UACC-257 melanoma): 26.4 µM
- GI50 (RXF 393 renal): 10.6 µM
- TGI (RXF 393 renal): 23.8 µM
- GI50 (PC-3 prostate): 16.1 µM
- TGI (PC-3 prostate): 38 µM
- GI50 (SNB-19 CNS): 19 µM
- TGI (SNB-19 CNS): > 48.4 µM
- GI50 (DU-145 prostate): 13.9 µM
- TGI (DU-145 prostate): 27.4 µM
- GI50 (HT29 colon): 10 µM
- TGI (HT29 colon): 23.4 µM
- GI50 (UACC-62 melanoma): 12.4 µM
- TGI (UACC-62 melanoma): 25 µM
- GI50 (SNB-75 CNS): 13.2 µM
- TGI (SNB-75 CNS): 26.4 µM
- GI50 (SF-295 CNS): 8.3 µM
- TGI (SF-295 CNS): 22.4 µM
- GI50 (A549 NSCLC): 14.7 µM
- TGI (A549 NSCLC): 29.5 µM
- GI50 (NCI-H226 lung): 7.9 µM
- TGI (NCI-H226 lung): 21.9 µM
- GI50 (HCT-116 colon): 6.6 µM
- TGI (HCT-116 colon): 19.4 µM
- GI50 (CCRF-CEM leukemia): 3.68 µM
- TGI (CCRF-CEM leukemia): 13.1 µM
- GI50 (786-0 renal): 7.97 µM
- TGI (786-0 renal): 21.3 µM
